According to patent publication US9862711B2, “Pyrazine derivatives as phosphatidylinositol 3-kinase inhibitors” (NOVARTIS AG, priority 2014, dated 2018):

These molecules were tested against PI 3-kinase gamma (Homo sapiens (Human), UniProt P48736) (assay: Cellular U937 AKT assay (Assay K)). Conditions: AKT phosphorylation in U937 monocyte cells stimulated with 10 ng/ml MIP1α; read-out: Assay K PI3Kγ IC50.
Format: cell-based
Method: Cellular U937 AKT Assay for PI 3-Kinase Gamma (K)
The U937 monocyte cell line is maintained in a basal medium of RPMI 1640 supplemented with 10% heat inactivated FCS, 100 U/ml Penicillin, 100 ug/ml streptomycin and 2 mM L-glutamine (Invitrogen). U937 suspension culture is maintained by seeding cells at a density of 0.125×10^6 cells per ml in fresh medium every three or four days. Cells are incubated at 37° C., 5% CO2. Three or four days prior to assay, cells are seeded at a density of 0.25×10^6 cells per ml in a total volume of 40 ml in a T162 culture flask.
Before beginning the cell manipulations described below, the MSD (Meso Scale Discovery) assay plate is blocked by addition of 150 ul/well blocking buffer supplied and incubated with shaking for a minimum of one hour at room temperature. All steps of the assay must be performed quickly, with accurately timed incubation periods and observing temperature controls where indicated.
Cells seeded at 0.25×10^6/ml 3 or 4 days prior to the assay are aspirated, transferred to a 50 ml falcon tube, counted and centrifuged for eight minutes at 300 g at room temperature. Supernatant is aspirated, the cell pellet resuspended and washed once in HBSS (Hank's Balanced Salt Solution) by centrifugation for eight minutes at 300 g at room temperature. The cell pellet is resuspended in HBSS to a concentration of 4×10^6 per ml, and 100 μL of cell suspension added to each well of a flat-bottomed 96-well tissue culture plate. Assay plates are incubated for 1.5 hours at 37° C., 5% CO2 to allow background AKT phosphorylation to reduce before the compound stimulation step.
A 5 mM stock concentration of compound is prepared in 100% DMSO; from this a 1 in 125 dilution is made in HBSS giving a top compound concentration of 40 μM, 0.8% DMSO. Compound titrations are prepared in a fresh flat-bottomed, 96-well plate, by 10-fold serial dilution of 40 uM into HBSS 0.8% DMSO; pipette tips are replaced after each dilution is made. Compound concentrations at this stage are 4-times the final concentration required in the assay plate. Cells are stimulated with compound or HBSS 0.8% DMSO by direct transfer of 50 ul/well from the compound dilution plate. The assay plate containing compound-treated cells is then incubated for 30 minutes at 37° C. A standard plate layout is used for all experiments.
Compound-treated cells, in addition to positive control wells (“max MIP1α”), are stimulated with 50 μL per well of 40 ng/ml MIP1α (R&D Systems catalogue number 270-LD, lyophilized stock reconstituted to 50 μg/ml with PBS 0.1% BSA). Negative control wells (“min HBSS”), are stimulated with 50 μl/well of HBSS in the absence of MIP1α. Final compound concentrations are now diluted 4-fold giving a top concentration of 10 μM; where added, the final concentration of MIP1α is 10 ng/ml. Cells are incubated with MIP1α for 3 minutes, at 37° C., 5% CO2. After the three minute stimulation period, the assay plate is kept ice cold at all times. Assay plates are centrifuged for 2 minutes at 300 g, 4° C. and supernatant is removed by gently inverting, and then blotting the plate on tissue. Cells are then washed by gentle addition of 150 μL/well of ice cold HBSS and centrifugation at 300 g, for 5 minutes at 4° C. Supernatant is aspirated and the plate blotted as described above. The plate is placed on ice and cells are immediately treated with 35 μL per well of ice cold lysis buffer, prepared according to the kit instructions (per assay plate, to 5 ml of Tris lysis buffer add 100 μl of 50× protease inhibitor solution and 50 μl of each 100× phosphatase inhibitor solutions I and II). Plates are incubated on ice for 20 minutes before centrifugation at 841 g for 5 minutes, 4° C.
Block buffer is aspirated from the MSD plate, and the plate washed four times with 300 μl/well Tris wash buffer. 25 μL of cell lysate is then transferred from the assay plate to the washed MSD plate which is sealed and incubated at room temperature for one hour with shaking. […]

Sequence of PI 3-kinase gamma (P48736 whole entry): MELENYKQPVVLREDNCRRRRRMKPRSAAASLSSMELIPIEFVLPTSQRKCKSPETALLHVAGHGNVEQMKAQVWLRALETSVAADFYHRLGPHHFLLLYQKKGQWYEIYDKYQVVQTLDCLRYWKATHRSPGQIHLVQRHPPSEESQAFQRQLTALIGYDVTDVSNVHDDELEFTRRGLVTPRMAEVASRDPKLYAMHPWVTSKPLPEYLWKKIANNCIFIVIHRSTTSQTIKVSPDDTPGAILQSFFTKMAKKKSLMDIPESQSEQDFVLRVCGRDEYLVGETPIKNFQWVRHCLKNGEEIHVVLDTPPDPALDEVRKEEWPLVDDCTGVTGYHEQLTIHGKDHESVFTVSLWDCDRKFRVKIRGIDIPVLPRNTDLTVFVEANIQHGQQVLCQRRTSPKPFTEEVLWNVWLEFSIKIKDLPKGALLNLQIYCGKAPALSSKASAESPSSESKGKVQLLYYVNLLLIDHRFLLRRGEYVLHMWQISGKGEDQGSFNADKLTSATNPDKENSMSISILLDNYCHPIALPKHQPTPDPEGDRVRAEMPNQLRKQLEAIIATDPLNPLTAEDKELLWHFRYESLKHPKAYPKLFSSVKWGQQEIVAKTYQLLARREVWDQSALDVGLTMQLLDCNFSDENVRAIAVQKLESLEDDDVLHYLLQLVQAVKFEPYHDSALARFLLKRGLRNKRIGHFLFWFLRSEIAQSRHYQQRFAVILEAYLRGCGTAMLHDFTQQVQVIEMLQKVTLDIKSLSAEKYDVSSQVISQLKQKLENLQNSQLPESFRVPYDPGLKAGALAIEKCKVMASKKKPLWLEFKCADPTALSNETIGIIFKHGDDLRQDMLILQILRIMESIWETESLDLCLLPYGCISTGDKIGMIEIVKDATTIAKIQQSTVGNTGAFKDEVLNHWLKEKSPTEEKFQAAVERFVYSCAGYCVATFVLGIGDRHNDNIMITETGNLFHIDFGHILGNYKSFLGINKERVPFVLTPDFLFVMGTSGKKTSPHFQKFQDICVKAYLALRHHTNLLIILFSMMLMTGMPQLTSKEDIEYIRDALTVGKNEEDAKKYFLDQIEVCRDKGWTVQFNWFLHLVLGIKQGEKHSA

Q: `Cc1ccc(S(=O)(=O)NCCC(C)(C)O)cc1-c1cncc(-c2cn(CCN3CCOCC3)nc2C)n1` [Example 10, N-(3-Hydroxy-3-methyl-butyl)-4-methyl-3-{6-[3-methyl-1-(2-morpholin-4-yl-ethyl)-1H-pyrazol-4-yl]-pyrazin-2-yl}-benzenesulfonamide] was tested. Which IC50 did it give?
A: 121 nM

Q: How did the IC50 turn out when `Cc1ccc(S(=O)(=O)NCC(C)(C)O)cc1-c1cncc(-c2cn(C)nc2C)n1` [Example 2, 3-[6-(1,3-Dimethyl-1H-pyrazol-4-yl)-pyrazin-2-yl]-N-(2-hydroxy-2-methyl-propyl)-4-methyl-benzenesulfonamide] was run?
A: 66 nM

Q: Which IC50 does the source give for `Cc1ncc(-c2cncc(-c3cc(S(=O)(=O)NCCCO)ccc3C)n2)s1` [Example 1, N-(3-Hydroxy-propyl)-4-methyl-3-[6-(2-methyl-thiazol-5-yl)-pyrazin-2-yl]-benzenesulfonamide] here?
A: 329 nM

Q: How did the IC50 turn out when `Cc1ccc(S(=O)(=O)NCC2(C)COC2)cc1-c1cncc(-c2cn(C)nc2C)n1` [Example 4, Trans 3-[6-(1,3-Dimethyl-1H-pyrazol-4-yl)-pyrazin-2-yl]-4-methyl-N-(3-methyl-oxetan-3-ylmethyl)-benzenesulfonamide] was run?
A: 54 nM

Q: `Cc1ccc(S(=O)(=O)NCCC(C)(C)O)cc1-c1cncc(-c2cnn(CCN3CCOCC3)c2)n1` [Example 9, N-(3-Hydroxy-3-methyl-butyl)-4-methyl-3-{6-[1-(2-morpholin-4-yl-ethyl)-1H-pyrazol-4-yl]-pyrazin-2-yl}-benzenesulfonamide] was tested. Which IC50 did it give?
A: 599 nM

Q: For `Cc1ccc(S(=O)(=O)NCC(C)(C)CO)cc1-c1cncc(-c2cn(C)nc2C)n1` [Example 8, 3-[6-(1,3-Dimethyl-1H-pyrazol-4-yl)-pyrazin-2-yl]-N-(3-hydroxy-2,2-dimethyl-propyl)-4-methyl-benzenesulfonamide], which IC50 is on record?
A: 96 nM

Q: With `Cc1ncc(-c2cncc(-c3cc(S(=O)(=O)N[C@H]4CC[C@H](O)CC4)ccc3C)n2)s1` [Example 5, Trans N-(4-Hydroxycyclohexyl)-4-methyl-3-(6-(2-methylthiazol-5-yl)pyrazin-2-yl)benzenesulfonamide] as the molecule, how does the IC50 read?
A: 38 nM

Q: How did the IC50 turn out when `Cc1ccc(S(=O)(=O)N[C@H]2CC[C@H](O)CC2)cc1-c1cncc(-c2cccnc2)n1` [Example 11, Trans N-(4-Hydroxy-cyclohexyl)-4-methyl-3-(6-pyridin-3-yl-pyrazin-2-yl)-benzenesulfonamide] was run?
A: 213 nM

Q: With `Cc1ccc(S(=O)(=O)NCCC(C)(C)O)cc1-c1cncc(-c2cn(C)nc2C)n1` [Example 3, 3-[6-(1,3-Dimethyl-1H-pyrazol-4-yl)-pyrazin-2-yl]-N-(3-hydroxy-3-methyl-butyl)-4-methyl-benzenesulfonamide] as the molecule, how does the IC50 read?
A: 80 nM
